Measurements from patent publication US20260049085A1, “CYCLIC COMPOUNDS AND METHODS OF USING SAME” (SCHRÖDINGER, INC., priority 2022, published 2026).

Molecular target: T1, full-length MALT1 protein His-MALT1(1-824) (Homo sapiens, UniProt Q9UDY8)
T1 construct: full-length MALT1 protein His-MALT1(1-824); His (N); made in house; host or cells: baculovirus-infected insect cells
T1 sequence (Q9UDY8 1-824): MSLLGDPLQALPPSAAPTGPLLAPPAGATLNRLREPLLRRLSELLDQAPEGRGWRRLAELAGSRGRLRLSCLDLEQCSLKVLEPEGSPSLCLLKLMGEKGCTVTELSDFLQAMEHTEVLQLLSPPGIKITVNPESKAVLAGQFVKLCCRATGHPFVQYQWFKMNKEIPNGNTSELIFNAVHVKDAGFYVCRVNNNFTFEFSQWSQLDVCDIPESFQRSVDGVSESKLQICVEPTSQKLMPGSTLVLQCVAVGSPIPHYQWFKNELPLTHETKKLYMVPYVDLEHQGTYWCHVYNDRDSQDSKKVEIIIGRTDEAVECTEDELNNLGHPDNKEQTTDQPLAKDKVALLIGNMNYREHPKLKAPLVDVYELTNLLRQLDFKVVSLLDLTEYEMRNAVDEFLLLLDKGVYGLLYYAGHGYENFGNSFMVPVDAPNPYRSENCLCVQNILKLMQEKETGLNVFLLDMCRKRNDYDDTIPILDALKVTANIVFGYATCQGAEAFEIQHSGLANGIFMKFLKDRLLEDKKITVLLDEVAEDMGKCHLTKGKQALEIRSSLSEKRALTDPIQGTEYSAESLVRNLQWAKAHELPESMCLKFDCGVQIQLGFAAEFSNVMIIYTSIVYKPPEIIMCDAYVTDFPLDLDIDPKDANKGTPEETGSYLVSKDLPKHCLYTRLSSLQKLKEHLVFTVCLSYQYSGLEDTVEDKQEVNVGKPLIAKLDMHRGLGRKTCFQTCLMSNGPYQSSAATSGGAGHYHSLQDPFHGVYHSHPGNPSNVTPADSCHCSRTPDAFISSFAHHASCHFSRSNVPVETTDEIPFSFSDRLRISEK
Assay: MALT1 protease assay (Ac-LRSR-AMC tetrapeptide substrate, fluorescence)
Format: biochemical
Conditions: 1 nM MALT1, 25 μM Ac-LRSR-AMC, 2 h pre-incubation, 8 hr incubation at RT
Protocol: MALT1 protease activity was assessed in an in vitro assay using a tetrapeptide as substrate and full-length MALT1 protein His-MALT1(1-824) purified from baculovirus-infected insect cells.
The final assay buffer includes 1 nM of MALT1 full-length protein, 25 μM Ac-LRSR-AMC substrate, 50 mM Tris pH 7.5, 600 mM Sodium Citrate, 1 mM DTT, 1 mM EDTA, and 0.05% BSA in 384-well plate format using black microtiter square well plates (Optiplate 384-F, Perkin Elmer).
Test compounds were dissolved in 100% DMSO stock of 10 mM, with final DMSO concentration of 0.1%. Test compounds were pre-incubated with MALT1 protein for 2 h at room temperature. Substrate was added after the pre-incubation and fluorescence signal was measured using Envision at excitation 355 nm and emission 460 nm after 8 hr incubation at RT.
The fluorescence units were transformed to percentage of remaining activity by using the high control (HC, median of fluorescence signal from wells containing MALT1 protein, substrate, and DMSO) and low control (LC, median of fluorescence signal from wells with substrate only) with the formula below: […]
IC50 and Hill coefficients were obtained using Graph Pad Prism (Graph Pad software, Inc, USA) with non-linear regression analysis.

IC50 [nM]	SMILES
10 to 100	CCn1cc([C@]2(C)C[C@H](C(=O)Nc3cnc(-n4nccn4)c(Cl)c3)c3cnc4cc(F)nn4c32)cn1 (single isomer, unassigned) [Example 22]
10 to 100	Cc1cc(NC(=O)[C@H]2C[C@](C)(c3cnn(C)c3)c3c2cnc2cc(F)nn32)cnc1OC(F)F (single isomer, unassigned) [Example 60]
≥ 1000	CC1(c2cnn(C3(C)CC3)c2)CC(C(=O)Nc2cnc(-n3nccn3)c(Cl)c2)c2cnc3cc(F)nn3c21 (single isomer, unassigned) [Example 107]
100 to 1000	C[C@]1(c2ccn(C(F)F)n2)C[C@@H](C(=O)Nc2cnc(-n3nccn3)c(Cl)c2)c2cnc3cc(F)nn3c21 (single isomer, unassigned) [Example 91]
10 to 100	CC1(c2cnn(C(F)F)c2)CC(C(=O)Nc2cnc(N=S3(=O)CCC3)c(Cl)c2)c2cnc3cc(F)nn3c21 (single isomer, unassigned) [Example 96]
100 to 1000	C[C@]1(c2ccn(C(F)F)n2)C[C@@H](C(=O)Nc2cnc(-c3ncccn3)c(C(F)(F)F)c2)c2cnc3cc(F)nn3c21 (single isomer, unassigned) [Example 139]
100 to 1000	C[C@]1(c2ccn(C(F)F)n2)C[C@@H](C(=O)Nc2ccc(-c3ncccn3)c(C(F)(F)F)c2)c2cnc3cc(F)nn3c21 (single isomer, unassigned) [Example 188]
< 10	CC(F)(F)n1ccc([C@@]2(C)C[C@H](C(=O)Nc3cnc(-c4ncccn4)c(C(F)(F)F)c3)c3cnc4cc(F)nn4c32)n1 (single isomer, unassigned) [Example 164, (trans)-8-(1-(1,1-difluoroethyl)-1H-pyrazol-3-yl)-2-fluoro-8-methyl-N-(6-(pyrimidin-2-yl)-5-(trifluoromethyl)pyridin-3-yl)-7,8-dihydro-6H-cyclopenta[e]pyrazolo[1,5-a]pyrimidine-6-carboxamide]
≥ 1000	C[C@@]1(c2ccn(C(F)F)n2)C[C@@H](C(=O)Nc2cnc(-n3nccn3)c(Cl)c2)c2cnc3cc(F)nn3c21 (single isomer, unassigned) [Example 89]
≥ 1000	CC(C)n1cc([C@]2(C)C[C@@H](C(=O)Nc3cnc(-n4nccn4)c(Cl)c3)c3cnc4cc(F)nn4c32)cn1 (single isomer, unassigned) [Example 49]
< 10	C[C@]1(c2cnn(CC3CC3)c2)C[C@H](C(=O)Nc2cnc(-n3nccn3)c(Cl)c2)c2cnc3cc(F)nn3c21 (single isomer, unassigned) [Example 98]
100 to 1000	CC1(c2ccn(C(F)F)n2)CC(C(=O)Nc2cnc(-c3ncc(F)cn3)c(Cl)c2)c2cnc3cc(F)nn3c21 (single isomer, unassigned) [Example 115]
≥ 1000	C[C@@]1(c2cnn(C3CC3)c2)C[C@@H](C(=O)Nc2cnc(OC(F)F)c(C#N)c2)c2cnc3cc(F)nn3c21 (single isomer, unassigned) [Example 73]
100 to 1000	C[C@]1(c2cnn(CC(F)(F)F)c2)C[C@@H](C(=O)Nc2cnc(-n3nccn3)c(Cl)c2)c2cnc3cc(F)nn3c21 (single isomer, unassigned) [Example 87]
< 10	C[C@]1(c2ccn(C(F)F)n2)C[C@H](C(=O)Nc2cnc(-c3ncccn3)c(C(F)(F)F)c2)c2cnc3cc(Cl)nn3c21 (single isomer, unassigned) [Example 171]
≥ 1000	C[C@@]1(c2cnn(CC(F)(F)F)c2)C[C@@H](C(=O)Nc2cnc(-n3nccn3)c(Cl)c2)c2cnc3cc(F)nn3c21 (single isomer, unassigned) [Example 85]
≥ 1000	Cn1cc([C@]2(C)C[C@@H](C(=O)Nc3cnc(-n4nccn4)c(Cl)c3)c3cnc4cc(F)nn4c32)cn1 (single isomer, unassigned) [Example 2]

IC50 [nM]	SMILES
10 to 100	C[C@]1(c2cnn(C(F)F)c2)C[C@H](C(=O)Nc2cnc(-c3ncc(F)cn3)c(Cl)c2)c2cnc3cc(F)nn3c21 [Example 134, (6S,8R)—N-(5-chloro-6-(5-fluoropyrimidin-2-yl)pyridin-3-yl)-8-(1-(difluoromethyl)-1H-pyrazol-4-yl)-2-fluoro-8-methyl-7,8-dihydro-6H-cyclopenta[e]pyrazolo[1,5-a]pyrimidine-6-carboxamide]
100 to 1000	Cn1cc([C@]2(C)C[C@H](C(=O)Nc3cnc(OC(F)F)c(C#N)c3)c3cnc4cc(F)nn4c32)cn1 (single isomer, unassigned) [Example 42]
10 to 100	C[C@]1(c2cn(C(F)F)nn2)C[C@H](C(=O)Nc2cnc(-n3nccn3)c(Cl)c2)c2cnc3cc(F)nn3c21 (single isomer, unassigned) [Example 175]
10 to 100	C[C@]1(c2cnn(C(F)F)c2)C[C@H](C(=O)Nc2cnc(-c3ncncc3F)c(Cl)c2)c2cnc3cc(F)nn3c21 (single isomer, unassigned) [Example 156]
100 to 1000	CC(C)n1cc([C@@]2(C)C[C@@H](C(=O)Nc3cnc(-n4nccn4)c(Cl)c3)c3cnc4cc(F)nn4c32)cn1 (single isomer, unassigned) [Example 51]
100 to 1000	C[C@]1(c2cnn(C(F)F)c2)CC(C(=O)Nc2cnc(-n3nccn3)c(C(F)(F)F)c2)c2cnc3cc(F)nn3c21 (single isomer, unassigned) [Example 83]
10 to 100	Cn1nccc1[C@@]1(C)C[C@H](C(=O)Nc2cnc(-n3nccn3)c(Cl)c2)c2cnc3cc(F)nn3c21 (single isomer, unassigned) [Example 64]
< 10	C[C@]1(c2ccn(C(F)F)n2)C[C@H](C(=O)Nc2ccc(-c3ncccn3)c(C(F)(F)F)c2)c2cnc3cc(F)nn3c21 (single isomer, unassigned) [Example 185]
≥ 1000	Cn1cc([C@]2(C)C[C@@H](C(=O)Nc3cnc(-n4nccn4)c(Cl)c3)c3cnc4cc(Cl)nn4c32)cn1 (single isomer, unassigned) [Example 9]
100 to 1000	C[C@]1(c2ccn(C(F)F)n2)C[C@@H](C(=O)Nc2cnc(-c3ncccn3)c(C(F)(F)F)c2)c2cnc3cc(Cl)nn3c21 (single isomer, unassigned) [Example 174]
100 to 1000	Cn1cc([C@@]2(C)C[C@@H](C(=O)Nc3cnc(-n4nccn4)c(Cl)c3)c3cnc4c(F)c(F)nn4c32)cn1 (single isomer, unassigned) [Example 15]
≥ 1000	Cc1cc(NC(=O)[C@H]2C[C@@](C)(c3cnn(C)c3)c3c2cnc2cc(F)nn32)cnc1OC(F)F (single isomer, unassigned) [Example 62]
≥ 1000	C[C@@]1(c2ccn(C(F)F)n2)C[C@H](C(=O)Nc2ccc(-c3ncccn3)c(Cl)c2)c2cnc3cc(F)nn3c21 (single isomer, unassigned) [Example 191]
10 to 100	C[C@@]1(c2cnn(C3CC3)c2)C[C@H](C(=O)Nc2cnc(-n3nccn3)c(Cl)c2)c2cnc3cc(F)nn3c21 (single isomer, unassigned) [Example 30]
≥ 1000	Cn1ccc([C@@]2(C)C[C@@H](C(=O)Nc3cnc(OC(F)F)c(C#N)c3)c3cnc4cc(F)nn4c32)n1 (single isomer, unassigned) [Example 71]
100 to 1000	C[C@]1(c2cnn(CC3CC3)c2)C[C@@H](C(=O)Nc2cnc(-n3nccn3)c(Cl)c2)c2cnc3cc(F)nn3c21 (single isomer, unassigned) [Example 101]
≥ 1000	Cc1cc(NC(=O)[C@@H]2C[C@](C)(c3cnn(C)c3)c3c2cnc2cc(F)nn32)cnc1-n1nccn1 (single isomer, unassigned) [Example 59]
